Source: US8895762B2, “Process for the preparation of sulfamide derivatives” (Janssen Pharmaceutica NV, priority 2011, dated 2014)

Assay: solubility in water at room temperature
Format: physicochemical

In the case of `NC[C@H]1COc2cc(Cl)ccc2O1` [compound of formula (V-S), (2S)-6-chloro-2,3-dihydro-1,4-benzodioxin-2-methanamine], the solubility in water is reported as 0.35 g/100 g water.
